# Source: US20230405014A1, “USE OF AN IRAK4 MODULATOR FOR GENE THERAPY” (Genzyme Corporation, priority 2022, published 2023)
# Assays:
# [1] = system: human monocytic dendritic cells; assay: Cytokine release from human monocytic dendritic cells co-treated with AAV and KT-474 (Luminex); type: cell-based; details: co-treatment with AAV at MOI 1e5, 24 hours, all KT-474 doses
# Protocol: Preparation of Peripheral Blood Mononuclear Cells. Blood from leukopaks (Stem cell technologies) from different donors was decanted into 50 mL tubes and Dulbecco's phosphate buffered saline (DPBS) was added at a 1:1 ratio. The blood plus DBPS mix was gently pipetted into a separate 50 mL tube containing 15 mL Ficoll (GE17-5442-02) to ensure no mixing of the blood and Ficoll phases. The mixture was centrifuged at 2000 RPM for 25 minutes at room temperature (9 acceleration and no braking). The buffy coat containing the peripheral blood mononuclear cells (PBMCs) was collected, transferred to a new tube, and centrifuged for five minutes at 400 RCF. PBMCs were washed three times with phosphate buffered saline (PBS) containing 1% fetal bovine serum (FBS) or fetal calf serum (FCS) and counted.
# Isolation of Monocytes. CD14+ monocytes were isolated from the PBMCs using CD14 MicroBeads following the manufacturer's protocol (Miltenyi Biotech, Germany, order no. 130-050-201, protocol available online world wide web miltenyibiotec.com/upload/assets/IM0001260.PDF). Briefly, PBMCs were incubated with […] CD14 MicroBeads per 10^7 total cells for 15 minutes at 2-8° C. PBMCs were applied onto a magnetic column (Miltenyi; world wide web miltenyibiotec.com/US-en/products/ls-columns.html #130-042-401) and unlabeled cells were allowed to pass through. After washing the column three times, the column was removed from the magnetic separator, (Miltneyi; world wide web miltenyibiotec.com/US-en/products/quadromacs-separator-and-starting-kits.html #130-091-051) placed on a collection tube, and magnetically labeled CD14+ monocytes were flushed out by pushing a plunger into the column.
# Differentiation of Monocytes. […]
# rAAV Production and Titration. rAAV vectors were produced using a standard triple transfection method (Sena-Esteves and Gao, Cold Spring Harb Protoc; doi:10.1101/pdb.top095513, 2020). All serotypes evaluated encode the same GFP transgene. Viruses were purified by cesium chloride ultracentrifugation and titrated using both silver staining and quantitative polymerase chain reaction (qPCR). […]
# [2] = system: primary human monocytic dendritic cells; assay: Cell viability of dendritic cells (Live/Dead staining, flow cytometry); type: cell-based; details: AAV at MOI 1e5 and KT-474 co-treated, 24 hours, at doses tested, three donors (FIG. 3)
# [3] = system: transgene LacZ specific CD8 T cells; assay: In vivo mouse model of AAV-induced immune response, LacZ tetramer staining; design: species or system C57BL/6J mice; details: KT-474 in chow 100 mg/kg from 15 days prior to intramuscular AAV
# Protocol: In vivo mice experiments: C57BL/6J mice were purchased from Jackson Laboratories. 6-8-week male mice were divided into 3 groups—PBS group, AAV group and AAV+KT474 group all groups with 6 mice each. […] PBS group mice were injected intramuscularly with 100 ul PBS, AAV group was injected intramuscularly with 1e11 vg per quadricep muscle of both legs, 100 ul volume. AAV capsid used in the study had LacZ transgene. All animal experiments were conducted in accordance with the Institutional Animal Care and Use Committees at Sanofi, Framingham. Submandibular bleeds were performed weekly, and necropsy was performed three weeks post AAV injection.
# The PBS and AAV only groups were fed regular chow and were bled on day 14 and necorpsied on day 21.
# PBMC isolation 120 ul blood was collected in K2EDTA coated tubes. The blood was mixed with DBPS at 1:1 ration and pipetted into a separate tube containing Ficoll (GE17-5442-02) to ensure no mixing of the blood and Ficoll phases. The mixture was centrifuged at 2000 RPM for 25 minutes at room temperature (9 acceleration and no braking). […] PBMCs were washed three times with phosphate buffered saline (PBS) containing 1% fetal bovine serum (FBS) or fetal calf serum (FCS) and counted. The PBMC cells thus obtained were stained with different antibodies to quantify percentage of different immune cell subsets in peripheral blood. […]
smiles,measurement,setting,value
Cn1c(=O)n(C2CCC(=O)NC2=O)c2cccc(C#CCOC3CCN(C[C@H]4CC[C@H](n5cc(NC(=O)c6cnn7ccc(N8C[C@H]9C[C@@H]8CO9)nc67)c(C(F)F)n5)CC4)CC3)c21 (stereo partly drawn) [KT-474],AAV-induced secretion of IL1b,[1]; three donors (FIG. 2A),blocked
same,AAV-induced secretion of IL6,[1]; three donors (FIG. 2B),blocked
same,AAV-induced secretion of TNFa,[1]; three donors (FIG. 2C),blocked
same,cellular toxicity (cell viability),[2],no cellular toxicity
same,LacZ tetramer positive (transgene LacZ specific) CD8 T cells in PBMCs,"[3]; peripheral blood, 14 days post AAV injection (FIG. 6A)",reduced significantly
same,LacZ tetramer positive (transgene LacZ specific) CD8 T cells in spleen,"[3]; splenocytes, 21 days post AAV injection (FIG. 6B)",reduced significantly
